# According to patent publication US10201610B2, “Interference peptides and use thereof” (The University of Western Australia, priority 2014, dated 2019):
# Ends that are not written are not given here.
# Columns and labels:
# [1] = tested on: PBX family members (notably, PBX1); assay: Immunoprecipitation and western blotting of TFHDs from SUM149PT extracts; assay type: binding, human; settings: versus control peptide
# Source text: (§1) To investigate the binding partners of the iPeps in cancer cells, the inventors carried out affinity capture immunoprecipitation experiments using the biotinylated active iPep624 as bait, and the iPep624ΔHEX as negative control. They used total protein extracts from SUM149PT cells to capture endogenous proteins able to bind these peptides in vitro. Elutes were loaded in a 1D-SDS PAGE gel to visualize the enrichment of individual proteins. […] In addition, overexpression of EN1 cDNA into two different breast cell lines confirmed the interaction of the full length EN1 with the endogenous EPRS inside the cells (FIG. 6c). To ascertain whether some downstream well-known effectors of EPRS were also differentially regulated by the iPeps, we performed real time PCR to detect mRNA levels of COLA1, COLA2, S1004A and DDIT3 (CHOP). […] COLA1 and COLA2 encode collagen proteins highly enriched by the amino acid proline and S1004A is a protein involved in metastasis and fibrosis. […] In contrast, the amino acid stress factor DDIT3 is stimulated upon EPRS inhibition. […]
# (§2) The iPep624 and iPep624ΔHEX were coupled to a C-terminal biotin and immobilized in streptavidin-coated beads. […] Detection was performed with ECL Detection System (GE Healthcare) and quantitated using Image J v1.46 (ImageJ, NCBI).
# SUM149PT cells = assay: Hoechst staining of apoptotic nuclei in SUM149PT cells; assay type: cell-based, human; settings: 8 hours, compared with non-treated or iPep624ΔHEX-treated cells
# Source text: FIG. 3 Design of an EN1-specific interference peptide (EN1-iPep). (a) Molecular model of HOXA9 and PBX1 tertiary complex formation with the DNA (PDB: 1PUF). HOXA9 (hexapeptide “donor”) is shown in green; PBX (“partner”) in blue. The N-terminal peptide of HOXA9 (magenta) is essential to make contact with the DNA minor groove, as well as to stabilize the binding of HOXA9 with PBX1. The conserved tryptophan residue (W, arrow) is shown within the hexapeptide and it is responsible for anchoring the loop in PBX1. HD=Homeodomain. (b) A multiple alignment of the EN1-iPeps across species, with the consensus sequence of the iPep indicated below. […] Cells were treated for 8 hours and cell viability assessed by Cell Titer Glo assay (CTG). […] (e) Caspase 3 activity in SUM149PT cells measured after eight hours of iPep624 (SEQ ID NO: 5) or iPep624ΔHEX […]) treatment. […] Statistical significance was analyzed using the Student t-Test (*** p<0.001). […] Histogram represents the quantification of Hoechst positive cells per field of view at 40× magnification. […] Cell viability was assessed by Cell Titer Glo (CTG) assay and percentage of survival (%) was normalized to the control treated cells. […]
# The EN1-iPeps and iPep controls were first tested in SUM149PT cells carrying high EN1 expression. […] Treated cells were first analyzed using the Cell Titer Glo assay, which monitors metabolic viability. […]
# PAX6 = biological target: T1, PAX6 (Homo sapiens, UniProt P26367); assay: Immunoprecipitation and western blotting of TFHDs from SUM149PT extracts; assay type: binding; settings: versus control peptide
# T1 construct: endogenous in cells; host or cells: SUM149PT total protein extract
# Source text: as §1, §2
# T1 sequence (P26367 whole entry): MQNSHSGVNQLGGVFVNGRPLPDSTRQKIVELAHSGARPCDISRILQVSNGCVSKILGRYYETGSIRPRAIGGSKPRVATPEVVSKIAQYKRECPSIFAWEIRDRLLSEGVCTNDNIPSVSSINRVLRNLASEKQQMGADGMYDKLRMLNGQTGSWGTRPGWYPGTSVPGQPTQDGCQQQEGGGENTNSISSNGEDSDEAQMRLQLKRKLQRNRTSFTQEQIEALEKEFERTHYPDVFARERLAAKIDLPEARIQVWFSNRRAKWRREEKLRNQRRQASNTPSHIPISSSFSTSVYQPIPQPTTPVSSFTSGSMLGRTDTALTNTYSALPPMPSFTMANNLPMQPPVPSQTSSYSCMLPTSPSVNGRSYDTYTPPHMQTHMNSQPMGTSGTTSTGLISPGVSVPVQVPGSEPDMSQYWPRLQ
sequence,measurement,setting,value
KKKRKVTDSQQPLVWPAWVYCTRYSDRPS [iPep624],"interaction with PBX family members (notably, PBX1)",[1],specific interactions
same,number of apoptotic nuclei,SUM149PT cells,significantly higher
same,interaction with PAX6,PAX6,specific interactions
